{"source": "patent US20250171457A1", "about": "“NITROGEN-CONTAINING HETEROCYCLIC COMPOUND HAVING NRF2 ACTIVATION EFFECT” (CHUGAI SEIYAKU KABUSHIKI KAISHA, priority 2022, published 2025)", "tested_on": "Nrf2 transcriptional activity (pARE-Luc reporter) in HepG2 cells", "test": "In vitro Nrf2 transcriptional activity measurement by ARE-dependent reporter assay in HepG2 cell", "assay_type": "cell-based, human", "settings": "Homo sapiens; HepG2 cells transfected with pARE-Luc, 4 hours at 37° C.; luciferase activity of Example 1-54 or Example 17-23 at 3.75 μM defined as 100%", "summary_of_the_method": "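Luminescence readout (Bright-Glo) after 4 h, 37° C compound exposure of HepG2 cells carrying the ARE-luciferase vector pGL4.37. Each well converted to % response versus reference compound at 3.75 μM, and EC50 derived from dose-response curves.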"}
{"smiles": "O=C(O)c1cc(F)c(-c2cccc3c2OCN(C(=O)c2c(Cl)cc(OCCCCO)cc2Cl)C3)cc1N1CCOCC1", "note": "[Compound 4-51, 4-[3-[2,6-Dichloro-4-(4-hydroxybutoxy)benzoyl]-2,4-dihydro-1,3-benzoxazin-8-yl]-5-fluoro-2-morpholin-4-ylbenzoic acid]", "values": [{"measurement": "EC50", "value": 2.6, "unit": "nM"}]}
{"smiles": "O=C(O)c1cc(F)c(-c2cccc3c2OCN(C(=O)c2c(Cl)cc(N4CCC(CO)CC4)cc2Cl)C3)cc1N1CCOCC1", "note": "[Compound 4-27, 4-[3-[2,6-Dichloro-4-[4-(hydroxymethyl)piperidin-1-yl]benzoyl]-2,4-dihydro-1,3-benzoxazin-8-yl]-5-fluoro-2-morpholin-4-ylbenzoic acid]", "values": [{"measurement": "EC50", "value": 1.1, "unit": "nM"}]}
{"smiles": "COC[C@@H]1CN(C)CCN1c1cc(Cl)c(C(=O)N2COc3c(cccc3-c3cc(N4C5CCC4COC5)c(C(=O)O)cc3F)C2)c(Cl)c1", "note": "[Compound 19-19, 4-[3-[2,6-Dichloro-4-[(2S)-2-(methoxymethyl)-4-methylpiperazin-1-yl]benzoyl]-2,4-dihydro-1,3-benzoxazin-8-yl]-5-fluoro-2-(3-oxa-8-azabicyclo[3.2.1]octan-8-yl)benzoic acid]", "values": [{"measurement": "EC50", "value": 2.6, "unit": "nM"}]}
{"smiles": "CC1(C#N)CN(c2cc(Cl)c(C(=O)N3COc4c(cccc4-c4cc(N5C6CCC5COC6)c(C(=O)O)cc4F)C3)c(Cl)c2)C1", "note": "[Compound 1-15, 4-[3-[2,6-Dichloro-4-(3-cyano-3-methylazetidin-1-yl)benzoyl]-2,4-dihydro-1,3-benzoxazin-8-yl]-5-fluoro-2-(3-oxa-8-azabicyclo[3.2.1]octan-8-yl)benzoic acid]", "values": [{"measurement": "EC50", "value": 2.7, "unit": "nM"}]}
{"smiles": "Cn1cc(-c2cc(Cl)c(C(=O)N3COc4c(cccc4-c4cc(N5C6CCC5COC6)c(C(=O)O)cc4F)C3)c(Cl)c2)cn1", "note": "[Compound 13-1, 4-[3-[2,6-Dichloro-4-(1-methylpyrazol-4-yl)benzoyl]-2,4-dihydro-1,3-benzoxazin-8-yl]-5-fluoro-2-(3-oxa-8-azabicyclo[3.2.1]octan-8-yl)benzoic acid]", "values": [{"measurement": "EC50", "value": 7.1, "unit": "nM"}]}
{"smiles": "O=C(O)c1cc(F)c(-c2cccc3c2OCN(C(=O)c2c(Cl)cc(N4CC(O)(c5ccccc5)C4)cc2Cl)C3)cc1N1C2CCC1COC2", "note": "[Compound 1-16, 4-[3-[2,6-Dichloro-4-(3-hydroxy-3-phenylazetidin-1-yl)benzoyl]-2,4-dihydro-1,3-benzoxazin-8-yl]-5-fluoro-2-(3-oxa-8-azabicyclo[3.2.1]octan-8-yl)benzoic acid]", "values": [{"measurement": "EC50", "value": 11, "unit": "nM"}]}
{"smiles": "O=C(O)c1cc(F)c(-c2cccc3c2OCN(C(=O)c2c(Cl)cc(N4CC5(C4)OCCO5)cc2Cl)C3)cc1N1C2CCC1COC2", "note": "[Compound 5-4, 4-[3-[2,6-Dichloro-4-(5,8-dioxa-2-azaspiro[3.4]octan-2-yl)benzoyl]-2,4-dihydro-1,3-benzoxazin-8-yl]-5-fluoro-2-(3-oxa-8-azabicyclo[3.2.1]octan-8-yl)benzoic acid]", "values": [{"measurement": "EC50", "value": 2.4, "unit": "nM"}]}
{"smiles": "CO[C@H]1C[C@H]2CC[C@@H](C1)N2c1cc(Cl)c(C(=O)N2COc3c(cccc3-c3cc(N4C5CCC4COC5)c(C(=O)O)cc3F)C2)c(Cl)c1", "note": "(racemic) [Compound 6-11, 4-[3-[2,6-Dichloro-4-[rac-(1R,3r,5S)-3-methoxy-8-azabicyclo[3.2.1]octan-8-yl]benzoyl]-2,4-dihydro-1,3-benzoxazin-8-yl]-5-fluoro-2-(3-oxa-8-azabicyclo[3.2.1]octan-8-yl)benzoic acid]", "values": [{"measurement": "EC50", "value": 1.5, "unit": "nM"}]}
{"smiles": "O=C(O)c1cc(F)c(-c2cccc3c2OCN(C(=O)c2c(Cl)cc(N4CC(N5CC(F)(F)C5)C4)cc2Cl)C3)cc1N1C2CCC1COC2", "note": "[Compound 11-8, 4-[3-[2,6-Dichloro-4-[3-(3,3-difluoroazetidin-1-yl)azetidin-1-yl]benzoyl]-2,4-dihydro-1,3-benzoxazin-8-yl]-5-fluoro-2-(3-oxa-8-azabicyclo[3.2.1]octan-8-yl)benzoic acid]", "values": [{"measurement": "EC50", "value": 3.1, "unit": "nM"}]}
{"smiles": "CN1CCN(c2cc(Cl)c(C(=O)N3COc4c(ccc(F)c4-c4cc(N5CCOCC5)c(C(=O)O)cc4F)C3)c(Cl)c2)CC1", "note": "[Compound 1-80, 4-[3-[2,6-Dichloro-4-(4-methylpiperazin-1-yl)benzoyl]-7-fluoro-2,4-dihydro-1,3-benzoxazin-8-yl]-5-fluoro-2-morpholin-4-ylbenzoic acid]", "values": [{"measurement": "EC50", "value": 1.9, "unit": "nM"}]}
{"smiles": "O=C(O)c1cc(F)c(-c2cccc3c2OCN(C(=O)c2c(Cl)cc(N4C[C@@H]5C[C@H]4CO5)cc2Cl)C3)cc1N1C2CCC1COC2", "note": "[Compound 4-17, 4-[3-[2,6-Dichloro-4-[(1S,4S)-2-oxa-5-azabicyclo[2.2.1]heptan-5-yl]benzoyl]-2,4-dihydro-1,3-benzoxazin-8-yl]-5-fluoro-2-(3-oxa-8-azabicyclo[3.2.1]octan-8-yl)benzoic acid]", "values": [{"measurement": "EC50", "value": 4, "unit": "nM"}]}
{"smiles": "CC[C@@H](c1cccc2c1C(=O)NN(C(=O)c1c(Cl)cc(-c3cnn(C)c3)cc1Cl)C2)[C@H](C)C(=O)O", "note": "[Compound 17-1, (2S,3R)-3-[2-[2,6-Dichloro-4-(1-methylpyrazol-4-yl)benzoyl]-4-oxo-1,3-dihydrophthalazin-5-yl]-2-methylpentanoic acid]", "values": [{"measurement": "EC50", "value": 2.2, "unit": "nM"}]}
{"smiles": "O=C(O)c1cc(F)c(-c2cccc3c2OCN(C(=O)c2c(Cl)cc(N4CC5(CC5)C4)cc2Cl)C3)cc1N1C2CCC1COC2", "note": "[Compound 1-13, 4-[3-[4-(5-Azaspiro[2.3]hexan-5-yl)-2,6-dichlorobenzoyl]-2,4-dihydro-1,3-benzoxazin-8-yl]-5-fluoro-2-(3-oxa-8-azabicyclo[3.2.1]octan-8-yl)benzoic acid]", "values": [{"measurement": "EC50", "value": 2.4, "unit": "nM"}]}
{"smiles": "COC1CN(c2cc(Cl)c(C(=O)N3COc4c(cccc4-c4cc(N5C6CCC5COC6)c(C(=O)O)cc4F)C3)cc2C)C1", "note": "[Compound 1-71, 4-[3-[2-Chloro-4-(3-methoxyazetidin-1-yl)-5-methylbenzoyl]-2,4-dihydro-1,3-benzoxazin-8-yl]-5-fluoro-2-(3-oxa-8-azabicyclo[3.2.1]octan-8-yl)benzoic acid]", "values": [{"measurement": "EC50", "value": 6.1, "unit": "nM"}]}
{"smiles": "CC1(C)COC2(CN(c3cc(F)c(C(=O)N4COc5c(cccc5-c5cc(N6C7CCC6COC7)c(C(=O)O)cc5F)C4)c(Cl)c3)C2)OC1", "note": "[Compound 19-10, 4-[3-[2-Chloro-4-(7,7-dimethyl-5,9-dioxa-2-azaspiro[3.5]nonan-2-yl)-6-fluorobenzoyl]-2,4-dihydro-1,3-benzoxazin-8-yl]-5-fluoro-2-(3-oxa-8-azabicyclo[3.2.1]octan-8-yl)benzoic acid]", "values": [{"measurement": "EC50", "value": 2.5, "unit": "nM"}]}
{"smiles": "O=C(O)c1cc(F)c(-c2cccc3c2OCN(C(=O)c2c(Cl)cc(N4CC5(C4)CN(C4CC(F)(F)C4)C5)cc2Cl)C3)cc1N1C2CCC1COC2", "note": "[Compound 9-2, 4-[3-[2,6-Dichloro-4-[2-(3,3-difluorocyclobutyl)-2,6-diazaspiro[3.3]heptan-6-yl]benzoyl]-2,4-dihydro-1,3-benzoxazin-8-yl]-5-fluoro-2-(3-oxa-8-azabicyclo[3.2.1]octan-8-yl)benzoic acid]", "values": [{"measurement": "EC50", "value": 7.4, "unit": "nM"}]}
{"smiles": "N#CC1CC2(C1)CN(c1cc(Cl)c(C(=O)N3COc4c(cccc4-c4cc(N5C6CCC5COC6)c(C(=O)O)cc4F)C3)c(Cl)c1)C2", "note": "[Compound 1-47, 4-[3-[2,6-Dichloro-4-(6-cyano-2-azaspiro[3.3]heptan-2-yl)benzoyl]-2,4-dihydro-1,3-benzoxazin-8-yl]-5-fluoro-2-(3-oxa-8-azabicyclo[3.2.1]octan-8-yl)benzoic acid]", "values": [{"measurement": "EC50", "value": 12, "unit": "nM"}]}
{"smiles": "COCCOC1CN(c2cc(Cl)c(C(=O)N3COc4c(cccc4-c4cc(N5C6CCC5COC6)c(C(=O)O)cc4F)C3)c(Cl)c2)C1", "note": "[Compound 6-8, 4-[3-[2,6-Dichloro-4-[3-(2-methoxyethoxy)azetidin-1-yl]benzoyl]-2,4-dihydro-1,3-benzoxazin-8-yl]-5-fluoro-2-(3-oxa-8-azabicyclo[3.2.1]octan-8-yl)benzoic acid]", "values": [{"measurement": "EC50", "value": 2.4, "unit": "nM"}]}
{"smiles": "Cn1nnc2c(C(=O)N3COc4c(cccc4-c4cc(N5C6CCC5COC6)c(C(=O)O)cc4F)C3)c(Cl)cc(N3CC4(C3)OCC(C)(C)CO4)c21", "note": "[Compound 19-14, 4-[3-[5-Chloro-7-(7,7-dimethyl-5,9-dioxa-2-azaspiro[3.5]nonan-2-yl)-1-methylbenzotriazole-4-carbonyl]-2,4-dihydro-1,3-benzoxazin-8-yl]-5-fluoro-2-(3-oxa-8-azabicyclo[3.2.1]octan-8-yl)benzoic acid]", "values": [{"measurement": "EC50", "value": 4.1, "unit": "nM"}]}
{"smiles": "O=C(O)c1cc(F)c(-c2cccc3c2OCN(C(=O)c2c(Cl)cc(N4CC(n5cccn5)C4)cc2Cl)C3)cc1N1C2CCC1COC2", "note": "[Compound 11-3, 4-[3-[2,6-Dichloro-4-(3-pyrazol-1-ylazetidin-1-yl)benzoyl]-2,4-dihydro-1,3-benzoxazin-8-yl]-5-fluoro-2-(3-oxa-8-azabicyclo[3.2.1]octan-8-yl)benzoic acid]", "values": [{"measurement": "EC50", "value": 9.5, "unit": "nM"}]}
{"smiles": "COCCN1CCN(c2cc(Cl)c(C(=O)N3COc4c(cccc4-c4cc(N5C6CCC5COC6)c(C(=O)O)cc4F)C3)c(Cl)c2)[C@@H](C)C1", "note": "[Compound 7-8, 4-[3-[2,6-Dichloro-4-[(2S)-4-(2-methoxyethyl)-2-methylpiperazin-1-yl]benzoyl]-2,4-dihydro-1,3-benzoxazin-8-yl]-5-fluoro-2-(3-oxa-8-azabicyclo[3.2.1]octan-8-yl)benzoic acid]", "values": [{"measurement": "EC50", "value": 3.2, "unit": "nM"}]}
{"smiles": "CC1(C)COC2(CN(c3cc(Cl)c(C(=O)N4COc5c(cccc5-c5cc(N6C7CCC6COC7)c(C(=O)O)cc5F)C4)c(C#N)c3)C2)OC1", "note": "[Compound 19-5, 4-[3-[2-Chloro-6-cyano-4-(7,7-dimethyl-5,9-dioxa-2-azaspiro[3.5]nonan-2-yl)benzoyl]-2,4-dihydro-1,3-benzoxazin-8-yl]-5-fluoro-2-(3-oxa-8-azabicyclo[3.2.1]octan-8-yl)benzoic acid]", "values": [{"measurement": "EC50", "value": 2.7, "unit": "nM"}]}
{"smiles": "CO[C@H]1CC2(CN(c3cc(Cl)c(C(=O)N4COc5c(cccc5-c5cc(N6C7CCC6COC7)c(C(=O)O)cc5F)C4)c(Cl)c3)C2)[C@H]1C", "note": "(racemic) [Compound 1-87, 4-[3-[2,6-Dichloro-4-[rac-(6R,7S)-6-methoxy-7-methyl-2-azaspiro[3.3]heptan-2-yl]benzoyl]-2,4-dihydro-1,3-benzoxazin-8-yl]-5-fluoro-2-(3-oxa-8-azabicyclo[3.2.1]octan-8-yl)benzoic acid]", "values": [{"measurement": "EC50", "value": 1, "unit": "nM"}]}
